Experimental data as given in patent US20190201494A1, “COMPOSITIONS AND METHODS FOR TREATING NICOTINE WITHDRAWAL” (STC UNM, priority 2016, published 2019).
“Also recorded” adds a separate entry of the source.

Tests used:
Format in all cases: in vivo, human
[1] = tested on: overnight abstinent smokers; assay: Positive and Negative Affect Schedule (PANAS) mood ratings (Example 1)
From the text: (§1) Intranasal spray administration of insulin or placebo occurred at 12:30 PM. The purpose of the spacing time between morning check-in and nasal spray administration was stabilization of postprandial insulin levels. In a randomized fashion, the study nurse administered one spray in each nostril every three minutes for the total of six sprays of either insulin or placebo. Instructions to perform the Trier Social Stress Test were given at 13:20, and speech delivery occurred 13:30. Briefly, the Trier Social Stress Test^13 is a standardized laboratory stressor consisting of a free speech and a mental arithmetic task in front of an audience. Participants were introduced to the task and instructed to prepare a 5-minute presentation in which they were to promote their candidacy for a job. The speech was delivered after a 10-minute preparation period. Thereafter, participants were introduced to the mental arithmetic task, also standing in front of the audience and a self-projecting television screen. Subjects were required to count backwards from 2023 in steps of 17 as fast and accurately as possible for five minutes; upon making a mistake, subjects were asked to stop and start again at 2023. At every post-stress timepoint (13:40, 13:50, 14:00, 14:10, and 14:40), study nurses checked POC glucose to ensure euglycemia. After the last time point at 14:40, subjects ate a snack, had their glucose level checked, received another nares exam, and were discharged from the clinic at 16:00.
(§2) Subjective measures included the Questionnaire on Smoking Urges (QSU) Brief Form and Positive and Negative Affect Schedule (PANAS). Urges to smoke were rated using the 10-item QSU Brief Form^14 that consists of 10-questions. The answers are scored from 1 (strongly disagree) to 7 (strongly agree). These questions are the basis for the two factor derived subscales. Factor 1 subscale reflects a strong desire and intention to smoke with smoking perceived as rewarding. Factor 2 subscale reflects an anticipation of relief from negative affect with an urgent desire to smoke. Study data analysis included evaluations of both factors. The PANAS (Watson et al., 1988. J Pers Soc Psychol 54(6):1063-1070) consists of 10 negative and 10 positive mood terms rated on five-point Likert-type response scales from 1 (very slightly or not at all) to 5 (extremely). Positive and negative scale scores each range between 10 and 50. The PANAS was chosen as a composite measure of self-reported positive and negative affect. Subjective measures were taken at 08:30, 12:20, 13:00, 13:40, 13:50, 14:00, 14:10 and 14:40.
Random coefficient models were constructed for analyzing subjective (i.e., craving and mood), blood (insulin, glucose, C-peptide and nonesterified fatty acids) and cardiovascular (blood pressure) measures. For every model, an evaluation of non-linear term was performed, and, if significance was detected, that polynomial term for time was included in the model. Treatment, time and treatment by time interaction were included as fixed effects. Time nested within subjects was included as a random effect. If an interaction was detected, post hoc comparisons were performed comparing treatment groups at each time point. Cortisol was log-transformed for the purpose of normalizing distribution. The summary measure for cortisol analysis was peak change from baseline. Baseline cortisol was the 8:30 AM measurement, and time period for determination of peak was between 13:40 and 14:40. This time period reflects any cortisol change that resulted from the psychosocial stress procedure, with speech occurring from 13:30 to 13:35 and math from 13:35 to 13:40. Group differences were compared using analysis of variance (ANOVA). Significance values are reported as detected; no adjustments were made for multiple comparisons.

[2] = tested on: overnight abstinent smokers; assay: Salivary cortisol response to Trier Social Stress Test (Example 1); settings: 60 IU vs placebo, F(1,35)=12.78, p≤0.001
From the text: Intranasal spray administration of insulin or placebo occurred at 12:30 PM. The purpose of the spacing time between morning check-in and nasal spray administration was stabilization of postprandial insulin levels. In a randomized fashion, the study nurse administered one spray in each nostril every three minutes for the total of six sprays of either insulin or placebo. Instructions to perform the Trier Social Stress Test were given at 13:20, and speech delivery occurred 13:30. Briefly, the Trier Social Stress Test^13 is a standardized laboratory stressor consisting of a free speech and a mental arithmetic task in front of an audience. Participants were introduced to the task and instructed to prepare a 5-minute presentation in which they were to promote their candidacy for a job. […]
Salivary measures: Saliva samples were collected using a saliva collection kit (Salimetrics, LLC, Carlsbad, Calif.). Saliva samples were collected at 08:30, 12:20, 13:00, 13:40, 13:50, 14:00, 14:10, and 14:40, and analyzed for cortisol as follows: A microtitre plate was coated with monoclonal antibodies to cortisol using salivary cortisol ELISA kit (Salimetrics, LLC, Carlsbad, Calif.). […] Bound cortisol peroxidase was measured by the reaction of the peroxidase enzyme on the substrate tetramethylbenzidine (TMB). […] Optical density was read on a standard plate at 450 nm. […]

[3] = tested on: overnight abstinent smokers; assay: Questionnaire on Smoking Urges Brief ratings, overnight abstinence with Trier Social Stress Test (Example 1, parallel study)
Procedure: Session 2 methodology and results are presented in this publication.
Subjects started their overnight abstinence at 8 PM the night before reporting to the University of New Mexico Clinical and Translational Science Center. At 8 AM the following day, abstinence from smoking was confirmed with a CO reading on a coVita piCO+ breathalyzer less than 50% of their baseline CO recorded at intake. […] Exposure to nicotine was analyzed by quantitative liquid chromatography-tandem mass spectrometry. Cutoff for nicotine was 2 ng/mL for nicotine.
Following negative urine drug and pregnancy tests, at 8:30 AM, subjects completed their morning assessment of smoking urges and mood. A salivary cortisol sample was also taken at this time. They were then provided breakfast (a slice of banana bread, one apple, and two cheese sticks), which they had to eat entirely. The rest of the morning, subjects watched and read emotionally neutral movies and literature. At 11:45 AM, a study nurse inserted the intravenous line, completed a point-of-care (POC) glucose check and nares assessment.
as §1, §2
Placebo contained normal saline (0.9% NaCl). The product was prepared in a biosafety cabinet 30 minutes before administration. Insulin or placebo was placed in a 10 mL amber glass bottle (Gerresheimer AG, Düsseldorf, Germany), which was capped with a 10 mg sterile nasal pump (Aero Pump GmbH, Hochheim, Germany). […]

For “intranasal insulin: bulk human Regular insulin (U100 Novolin R, Novo Nordisk US), 100 IU/ml, six nasal sprays delivering 60 IU”, the “Negative mood ratings (PANAS), effect of treatment” value ([1]; 60 IU vs placebo) was “the effect of treatment was not significant”, the “Positive mood ratings (PANAS), effect of treatment” value ([1]; 60 IU vs placebo) was “no effect” and the “Negative mood ratings (PANAS), effect of treatment” value ([1]; 60 IU vs placebo, listed as Intranasal insulin) was “no effect”. The “Negative mood (PANAS), treatment×time interaction, b” value ([1]; SE(b)=0.01, z=0.10, p=0.92, not significant) was 0.001, the “Positive mood (PANAS), treatment×time interaction, b” value ([1]; SE(b)=0.017, z=−0.97, p=0.33, not significant) was −0.01 and the “Negative mood (PANAS), effect of treatment, b” value ([1]; SE(b)=1.30, z=1.07, p=0.28, not significant) was 1.38. The “Positive mood (PANAS), treatment, b” value ([1]; SE(b)=2.47, z=−0.19, p=0.84, not significant) was −0.47, the “Peak salivary cortisol levels following stress procedure (peak change from baseline, log-transformed)” value [2] was “increased (i.e., restored) the blunted cortisol response to stress; also recorded: restores blunted cortisol response to stress” and the “Peak salivary cortisol levels following stress procedure (peak change from baseline, log-transformed)” value ([2]; listed as Intranasal insulin) was “significantly increased”. The “Smoking urges / nicotine cravings (Questionnaire on Smoking Urges Brief) compared to placebo” value ([3]; 60 IU intranasal, overnight abstinence, through Trier Social Stress Test, p≤0.05) was “decreased significantly; also recorded: significant reduction of nicotine cravings”, the “Smoking urges, treatment×time interaction, b” value ([3]; 60 IU vs placebo, SE(b)=0.032, z=1.93, p≤0.05) was 0.064 and the “Smoking urges, main effect of treatment, b” value ([3]; 60 IU vs placebo, SE(b)=4.81, z=1.39, p=0.16, not significant) was 6.66. The “QSU-Brief Factor 2 (anticipation of relief from negative affect) compared to placebo” value ([3]; 60 IU, overnight abstinence, interaction non-significant) was “no effect; also recorded: not Factor 2 scale”, the “QSU-Brief Factor 1 (strong desire and intention to smoke) compared to placebo” value ([3]; 60 IU, overnight abstinence, p≤0.05) was “overall decrease in smoking urges was driven by intranasal insulin's effect on Factor 1” and the “QSU-Brief Factor 1 (strong desire and intention to smoke) compared to placebo” value ([3]; 60 IU, overnight abstinence, p≤0.05, listed as Intranasal insulin) was “significantly decreased”. The “Duration of effect on QSU-Brief Factor 1” value ([3]; 60 IU, detected immediately following treatment administration) was ≥ 100 min, the “QSU-Brief Factor 2, treatment×time interaction, b” value ([3]; SE(b)=0.01, z=1.48, p=0.14) was 0.02 and the “QSU-Brief Factor 1, treatment×time interaction, b” value ([3]; SE(b)=0.018, z=2.15, p≤0.05) was 0.039. The “QSU-Brief Factor 2, main effect of treatment, b” value ([3]; SE(b)=2.37, z=1.58, p=0.11) was 3.76 and the “QSU-Brief Factor 1, main effect of treatment, b” value ([3]; SE(b)=2.61, z=1.36, p=0.17) was 3.55.
